Experimental data published in patent US11779565B2, “Small organic molecules for use in the treatment of neuroinflammatory disorders” (THE MEDICAL RESEARCH, INFRASTRUCTURE AND HEALTH SERVICES …, priority 2017, dated 2023).
“Also recorded” adds a separate entry of the source.

Legend:
RR-EAE mice [1] = assay: De novo expression of doublecortin (BrdU+DCX+ cells) in SVZ and SGZ of RR-EAE mice; format: in vivo
From the text: FIGS. 10A-10B—The effect of SM1, SM7, SM9 and SM6 on de novo expression of neuroblasts marker doublecortin in the SVZ. FIG. 10A—Immunofluorescence images showing the labeling of BrdU and doublecortin (DCX) in the SVZ. Images were obtained using Zeiss 710 confocal microscope, coronal sections. LV, lateral ventricle, SVZ, subventricular zone. Scale bar for images: a, c, e, g, i, k, m, o=100 μm (magnification×10), and images: b, d, f, h, j, 1, n, p=20 μm (magnification×63). FIG. 10B: Quantification of BrdU^+ DOC^+ cells in the SVZ. Analysis was performed using image J software on 3 sections from each mouse (3 mice from each group, total n=9). Values are given as mean±SEM and the results of Student's t-test are represented as *p<0.05.
FIGS. 11A-11B—The effect of SM1, SM7, SM9 and SM6 on de novo expression of doublecortin in the SGZ. FIG. 11A: are immunohistochemical images showing the labeling of BrdU^+DCX^+ cells in the SGZ. Images were obtained using Olympus 8.1 microscope (magnification×10). FIG. 11B: Quantification of BrdU^+DCX^+ cells in the SGZ. Analysis was performed using image J software on 3 sections from each mouse (3 mice from each group, total n=9). Values are given as mean±SEM and the results of Student's t-test are represented as *p<0.05.
RR-EAE induced mice were intraperitoneally injected with 250 μg/mouse (Low-L) or 500 μg/mouse (High-H) of the small molecules SM1, SM7, SM9, SM6, or the corresponding vehicle. The SMs were injected each day starting on day 9 post immunization for 30 days. For immunohistochemical analysis, 3 mice of each group were intraperitoneally injected daily with bromo-2′-deoxyuridine (BrdU) starting from day 9 post immunization for 8 following days.
Next, the amount of BrdU DCX cells in the SGZ of mice was evaluated. FIGS. 11A-11B show immunohistochemical labeling of BrdU DCX cells in mice with EAE after treatment with the SMs or with vehicle.

RR-EAE mice [2] = assay: RR-EAE model in SJL mice, clinical score; format: in vivo; conditions: for EAE clinical score: 10 mg/kg/day i.p.
Procedure: RR-EAE was induced in SJL female mice (6-8 week old) by subcutaneous immunization (day 0) with 100 μg/mouse proteolipid protein peptide (PLP139-151, synthesized by Sigma-Aldrich) in 0.1 ml PBS. The peptide was emulsified in an equal volume of Complete Freund's Adjuvant (CFA, from DIFCO) containing 500 μg Mycobacterium tuberculosis H37RA (MT, from DIFCO). The mice also received an intraperitoneal injection of 300 ng pertussis toxin (PTX, from Sigma-Aldrich) in 0.2 ml PBS. A second injection of PTX (300 ng/mouse) was given 48 h later.
Mice were monitored for symptoms of RR-EAE and were scored as follows: “0” for no disease; “1”, tail paralysis; “2”, hind limb weakness; “3”, hind limb paralysis; “4”, hind limb and forelimb weakness/paralysis; “5”, moribund.
The effect of the small molecule inhibitors that were identified in Example 1 above was further tested in vivo using the experimental autoimmune encephalomyelitis (EAE) model in SJL mice. EAE serves as a model for Relapsing/Remitting multiple sclerosis (MS). EAE was induced as described in the experimental procedures section. SMs 1-9 or vehicle alone (5% DMSO in PBS) were daily administered by intraperitoneal injections of 250 μg/mouse (10 mg/kg/day), starting from day 9 post immunization, for the next 30 days. The animals were monitored until day 45 post-induction for symptoms of EAE and scored as follows: 0=no disease, 1=tail paralysis, 2=hind limb weakness, 3=hind limb paralysis, 4=hind limb plus forelimb paralysis, and 5=moribund.
Experiments were repeated with the 4 above-mentioned molecules SM1, SM6, SM7 & SM9. The experiment was conducted under similar conditions as the previous one, except that two dosages of the molecules were administered: a dose of 10 mg/kg and dose of 20 mg/kg, namely 250 μg/mouse and 500 μg/mouse on days 9-38 (see FIG. 4).

P19 cells = assay: In vitro differentiation assay of P19 cells (MAP-2 positive neurons); format: cell-based, murine; conditions: for MAP-2+ cells: day 8; for effect on neuronal phenotype (number of MAP-2+ cells) vs. RA+BMP-2: RA + rhBMP-2 + SM at 0.625, 1.25 and 2.5 μM
Procedure: P19 cells were grown in a-minimum essential medium (aMEM) (Gibco) containing 7.5% calf serum, 2.5% fetal calf serum, and 0.4 μl/ml penicillin—streptomycin (Gibco), at 37° C., 5% CO2. Cells were replenished with fresh medium every 48 h.
The medium, including RA, BMP supplements and SMs, was replenished after 48 h. After 4 days, aggregates which formed during RA treatment were dispersed enzymatically (0.05% v/v trypsin-0.02% v/v EDTA) and mechanically and plated in tissue culture grade dishes. At this stage, cells were cultured in RA-, BMP- and SM-free medium, which was refreshed every 48 h. MAP-2 positive neurons were examined at day 8 (i.e., day 4 post-RA treatment) by immunofluorescence. Briefly, at day 7, cells were re-cultured in 24 well-plates with cover slips at a final concentration of 5×10^4 cells/well. On day 8, cells were washed with PBS, fixed with PFA 4% for 15 min, permeabilized with 0.5% Triton Tx, blocked with 10% FCS, 0.1% BSA and 0.05% Tween for 30 min, and stained with MAP2 rabbit mAb (1:100, D5G1, Cell Signaling) for 1 hr. The second antibody step was performed by labeling with Alexa Fluor® 488-conjugated IgG antibody to rabbit for 1 h (1:1000; Molecular Probes USA).
Next, the effect of the small molecules on neurogenesis in a P19 differentiation model was measured. […] Neuronal differentiation is marked by the expression of the neuronal marker MAP-2, while the addition of BMP-2 reduces the levels of this marker. Addition of the murine anti-BMP-2/4 monoclonal antibody reverses the effect of BMP-2 and induces acquisition of neuronal phenotype. Thus, the effect of SM1, SM7 and SM9 on the expression of the neuronal marker MAP-2 in P19 cells was examined in the presence of RA and BMP-2. Three concentrations of the molecules were tested: 0.625 μM, 1.25 μM and 2.5 μM.

[3] = high dose (H) 500 μg/mouse i.p. daily from day 9 for 30 days
[4] = low dose (L) 250 μg/mouse i.p. daily from day 9 for 30 days
[5] = first experiment, 10 mg/kg/day i.p. from day 9 for 30 days, vs. vehicle
[6] = second experiment, 10 and 20 mg/kg, vs. vehicle
[7] = second experiment, high dosage 20 mg/kg, days 9-38, vs. vehicle
[8] = second experiment, low dosage 10 mg/kg, days 9-38, vs. vehicle
[9] = low dose (L) 250 μg/mouse i.p. daily
[10] = first experiment, day 21 post immunization (vehicle 1.1±0.3)

SMILES	BrdU+DCX+ cells in the SVZ vs. vehicle (RR-EAE mice [1]; [3])	BrdU+DCX+ cells in the SVZ vs. vehicle (RR-EAE mice [1]; [4])	effect on EAE clinical score (RR-EAE mice [2]; [5])	EAE clinical score (RR-EAE mice [2]; first experiment, day 19 post immunization (vehicle 1.1±0.3))	EAE clinical score (RR-EAE mice [2]; first experiment, day 27)	number of mice with moderate-severe EAE (clinical score at least 2) (RR-EAE mice [2]; [6])	effect on EAE clinical score (RR-EAE mice [2]; [7])	effect on EAE clinical score (RR-EAE mice [2]; [8])	MAP-2+ cells (P19 cells; RA + rhBMP-2 + SM 2.5 μM)	effect on neuronal phenotype (number of MAP-2+ cells) vs. RA+BMP-2 (P19 cells)	BrdU+DCX+ cells in the SGZ vs. vehicle (RR-EAE mice [1]; [9])	effect on EAE clinical score (RR-EAE mice [2]; second experiment, 10 and 20 mg/kg, days 9-38)	number of mice with a more severe EAE (RR-EAE mice [2]; second experiment, during the second relapse (vehicle 5-6 mice))	number of mice with a more severe EAE (RR-EAE mice [2]; second experiment, during the third relapse (vehicle 8-9 mice))	EAE clinical score (RR-EAE mice [2]; [10])	mice died by the end of the experiment (RR-EAE mice [2]; second experiment, high dose group 20 mg/kg, day 48)	mice died by the end of the experiment (RR-EAE mice [2]; second experiment, low dose group 10 mg/kg, day 48, n=14) [mice]	MAP-2+ cells (P19 cells; RA + rhBMP-2 + SM 1.25 μM) [%]	BrdU+DCX+ cells in the SGZ vs. vehicle (RR-EAE mice [1]; high dose (H) 500 μg/mouse i.p. daily)	MAP-2+ cells (P19 cells; RA + rhBMP-2 + SM 0.625 μM (low concentration))
COC(=O)c1sccc1N/N=C(\C#N)S(=O)(=O)c1cccs1 [SM1, Methyl 3-[(2E)-2-[cyano(thiophen-2-ylsulfonyl)methylidene]hydrazinyl]thiophene-2-carboxylate]	trend for increased induction	trend for increased induction	beneficial effect	0.5±0.2	0.3±0.3	beneficial effect	trend for amelioration	significant beneficial effect	62.2±3.9%	reversed the effect of BMP-2; also recorded: induced neuronal phenotype at all examined concentrations	–	–	–	–	–	–	–	–	–	–
O=C(Nc1cccc(C(F)(F)F)c1)c1ccc([N+](=O)[O-])o1 [SM6, N2-[3-(trifluoromethyl)phenyl)-5-nitro-2-furamide]	trend for increased induction	–	did not show any beneficial effect	–	–	reduced	–	–	–	–	trend for increased	milder and not significant	2-3 mice	5-7 mice	–	–	–	–	–	–
N#Cc1c(O)nsc1Nc1ccccc1C(F)(F)F [SM7, 3-hydroxy-5-[2-(trifluoromethyl)aniline]isothiazole-4-carbonitrile]	–	–	beneficial effect	–	–	–	–	–	No significant effect	reversed the effect of BMP-2; also recorded: induced neuronal phenotype at both the low and the mild concentrations	trend for increased	–	–	–	0.6±0.1	all of the mice died	8	76.1±3.1	–	–
CS(=O)(=O)c1noc(-c2ccc(Cl)cc2)c1C#N [SM9, 5-(4-chlorophenyl)-3-methylsulfonyl-1,2-oxazole-4-carbonitrile]	trend for increased induction	significant increase	beneficial effect	–	–	beneficial effect	ameliorated EAE	ameliorated EAE	80.6±10.0%	reversed the effect of BMP-2	trend for increased	–	–	–	0.8±0.3	–	–	76.4±12.6	significant increased induction	not effective
